Patent publication US20080269310A1, “Synergistic Combinations” (priority 2005, published 2008)
Like-named read-outs stand apart in the source and are kept apart here.

Assays:
[1] = test system: carrageenan-induced thermal hyperalgesia; test: rat carrageenan footpad thermal hyperalgesia assay (Hargreaves test); type: in vivo; conditions: gabapentin 10-100 mg/kg SC, carprofen 1-10 mg/kg SC, combination in fixed 10:1 ratio
Method: The aim of this experiment was to characterize the anti-nociceptive and anti-inflammatory effects of gabapentin administered in combination with carprofen in the rat. In this example, gabapentin, carprofen, and the combination of gabapentin and carprofen were evaluated in a standard rat carrageenan footpad thermal hyperalgesia assay. This assay utilizes an extract of seaweed (carrageenan) that, when injected into the footpad of test animals, causes a sterile inflammation, thereby lowering the pain threshold. […]
Each data point represents the mean and standard error of mean. […] The theoretical dose-additive line for a 10:1 dose ratio was determined (dotted line) as described (Tallarida, 1992). The experimental determination of a 10:1 dose ratio was determined (gabapentin-carprofen mixture 10:1) and a shift to the left of the theoretical dose-additive line was found. […]
Dose-effect curves were first determined for (1) gabapentin by itself and (2) carprofen by itself. The ED50 value of each agent was determined, as was the time to peak effect. […]
Carrageenan-induced thermal hyperalgesia: Rats were acclimated to a testing chamber whose glass floor was maintained at 25° C. One hour later, a high intensity beam of light was focused through the glass on the ventral surface of each hind paw, and the latency to reflex withdrawal of the paw from the light beam was measured to the nearest 0.1 second. […]

[2] = test system: COX-2 isozyme compared to the COX-1 isozyme; conditions: dogs, cited from earlier work
[3] = test system: COX-2 isozyme compared to the COX-1 isozyme; conditions: cats; American Journal of Veterinary Research, 2001, 62, 11, 1755; cited from earlier work
[4] = test system: COX-2 isozyme compared to the COX-1 isozyme; conditions: horses; American Journal of Veterinary Research, 2001, 62, 11, 1755; cited from earlier work

CC(C(=O)O)c1ccc2c(c1)[nH]c1ccc(Cl)cc12 (stereo not drawn) [carprofen, 6-chloro-α-methyl-9H-carbazole-2-acetic acid]
antihyperalgesic action (in words) [1]: antihyperalgesic actions | selectivity for the COX-2 isozyme compared to the COX-1 isozyme ([2]; American Journal Veterinary Research, 2000, 61, 7, 802): 1.75 fold | selectivity for the COX-2 isozyme compared to the COX-1 isozyme ([2]; American Journal Veterinary Research, 2002, 63, 1, 91): 16.8 fold | selectivity for the COX-2 isozyme compared to the COX-1 isozyme ([2]; American Journal of Veterinary Research, 2001, 62, 11, 1755): 6.5 fold | selectivity for the COX-2 isozyme compared to the COX-1 isozyme ([2]; WO 98/50033): 129 fold | selectivity for the COX-2 isozyme compared to the COX-1 isozyme [3]: 5.5 fold | selectivity for the COX-2 isozyme compared to the COX-1 isozyme [4]: 1.6 fold

NCC1(CC(=O)O)CCCCC1 [gabapentin, 1-(aminomethyl)-cyclohexylacetic acid]
antihyperalgesic action (in words) [1]: antihyperalgesic actions
